Patent US8524702B2, “Substituted benzoazepines as toll-like receptor modulators” (VentiRx Pharmaceuticals, Inc., priority 2009, dated 2013)

Target: T1, TLR8 (Homo sapiens, UniProt Q9NR97)
T1 sequence (Q9NR97 27-1041): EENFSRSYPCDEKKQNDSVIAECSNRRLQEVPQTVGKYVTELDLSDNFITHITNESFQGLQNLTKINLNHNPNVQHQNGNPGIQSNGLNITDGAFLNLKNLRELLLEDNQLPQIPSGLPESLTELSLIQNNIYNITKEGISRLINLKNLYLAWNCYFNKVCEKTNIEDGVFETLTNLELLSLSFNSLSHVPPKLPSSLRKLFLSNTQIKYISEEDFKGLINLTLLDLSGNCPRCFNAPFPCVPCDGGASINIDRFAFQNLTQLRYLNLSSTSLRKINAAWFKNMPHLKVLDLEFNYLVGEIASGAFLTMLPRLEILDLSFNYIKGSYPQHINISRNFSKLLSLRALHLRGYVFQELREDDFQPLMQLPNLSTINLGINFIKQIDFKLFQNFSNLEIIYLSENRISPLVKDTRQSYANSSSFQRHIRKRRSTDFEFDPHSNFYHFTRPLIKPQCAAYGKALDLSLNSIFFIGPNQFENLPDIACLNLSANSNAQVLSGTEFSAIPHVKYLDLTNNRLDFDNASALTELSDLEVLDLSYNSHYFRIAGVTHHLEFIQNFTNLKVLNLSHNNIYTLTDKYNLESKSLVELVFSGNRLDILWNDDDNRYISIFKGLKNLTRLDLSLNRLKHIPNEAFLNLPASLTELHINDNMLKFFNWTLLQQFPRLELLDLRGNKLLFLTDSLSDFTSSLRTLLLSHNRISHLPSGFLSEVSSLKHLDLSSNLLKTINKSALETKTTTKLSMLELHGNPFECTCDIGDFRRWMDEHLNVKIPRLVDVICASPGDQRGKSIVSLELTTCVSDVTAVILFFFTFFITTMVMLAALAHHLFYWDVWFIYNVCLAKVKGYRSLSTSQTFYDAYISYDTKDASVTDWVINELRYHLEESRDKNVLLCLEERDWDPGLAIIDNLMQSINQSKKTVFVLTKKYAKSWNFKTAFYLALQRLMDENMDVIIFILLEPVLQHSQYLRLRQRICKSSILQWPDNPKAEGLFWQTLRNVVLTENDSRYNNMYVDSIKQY
Experiment: PBMC assay for TLR8 (TNFα in supernatants by ELISA)
Format: cell-based
Design: Peripheral blood mononuclear cells (PBMCs) from human blood were isolated; endogenous in cells; host or cells: human PBMCs
Conditions: human PBMCs incubated with compound overnight, MC50 = concentration at which 50% of the maximum induction is seen
Procedure: Peripheral blood mononuclear cells (PBMCs) from human blood were isolated using BD Vacutainer Cell Preparation Tubes with sodium citrate. Cells were incubated with compound overnight. TLR8 activity was assayed by measuring the amount of TNFα in supernatants by ELISA. TLR7 activity was assayed by measuring the amount of IFNα in supernatants by ELISA (R&D Systems). […] The results of this assay are shown below in Tables 2 and 3.
MC50 numbers are represented as factors of ten, for example, + indicates an MC50 value of ×10^4, or a value in the tens of thousands of nanomolar (nM range); ++ indicates an MC50 value of ×10^3, or a value in the thousands; +++ indicates an MC50 value of ×10^2, or a value in the hundreds; and ++++ indicates an MC50 value of ×10^1 or 10°, or a value in the tens or ones.

EC50	SMILES
0.1 to 1 µM	CCCN(C(=O)C1=Cc2ccc(-c3ccc(C(=O)N4CCCC4)cc3)cc2N=C(N)C1)C(C)CC (stereo not shown) [Compound 102, (1E,4E)-2-amino-N-sec-butyl-N-propyl-8-(4-(pyrrolidine-1-carbonyl)phenyl)-3H-benzo[b]azepine-4-carboxamide]
0.001 to 0.1 µM	CCCN(CCO)C(=O)C1=Cc2ccc(-c3ccc(C(=O)N4CCCC4)cc3)cc2N=C(N)C1 [Compound 107, (1E,4E)-2-amino-N-(2-hydroxyethyl)-N-propyl-8-(4-(pyrrolidine-1-carbonyl)phenyl)-3H-benzo[b]azepine-4-carboxamide]
1 to 10 µM	CCCN(CCCF)C(=O)C1=Cc2ccc(-c3ccc(C(=O)OCC)cc3)cc2N=C(N)C1 [Compound 208, Ethyl 4-((1E,4E)-2-amino-4-((3-fluoropropyl)(propyl)carbamoyl)-3H-benzo[b]azepin-8-yl)benzoate]
1 to 10 µM	COCCN(CCOC)C(=O)C1=Cc2ccc(-c3ccc(C(=O)N4CCCC4)cc3)cc2N=C(N)C1 [Compound 120, (1E,4E)-2-amino-N,N-bis(2-methoxyethyl)-8-(4-(pyrrolidine-1-carbonyl)phenyl)-3H-benzo[b]azepine-4-carboxamide]
10 to 100 µM	NC1=Nc2cc(-c3ccc(C(=O)N4CCCC4)cc3)ccc2C=C(C(=O)N2CCCC2)C1 [Compound 121, (4-((1E,4E)-2-amino-4-(pyrrolidine-1-carbonyl)-3H-benzo[b]azepin-8-yl)phenyl)(pyrrolidin-1-yl)methanone]
1 to 10 µM	CCCN(CCC)C(=O)C1=Cc2ccc(-c3ccc(C(=O)O)cc3)cc2N=C(N)C1 [Compound 188, 4-((1E,4E)-2-amino-4-(dipropylcarbamoyl)-3H-benzo[b]azepin-8-yl)benzoic acid]
0.1 to 1 µM	CCCN(CCC)C(=O)C1=Cc2ccc(-c3cccc(C(=O)OCC)c3)cc2N=C(N)C1 [Compound 187, Ethyl 3-((1E,4E)-2-amino-4-(dipropylcarbamoyl)-3H-benzo[b]azepin-8-yl)benzoate]
0.1 to 1 µM	CCOC(=O)C1=Cc2ccc(-c3ccc(C(=O)N(CC)CC)cc3)cc2N=C(N)C1 [Compound 155, (1E,4E)-ethyl 2-amino-8-(4-(diethylcarbamoyl)phenyl)-3H-benzo[b]azepine-4-carboxylate]
0.1 to 1 µM	CCCNC(=O)C1=Cc2ccc(-c3ccc(C(=O)N4CCCC4)cc3)cc2N=C(N)C1 [Compound 101, (1E,4E)-2-amino-N-propyl-8-(4-(pyrrolidine-1-carbonyl)phenyl)-3H-benzo[b]azepine-4-carboxamide]
10 to 100 µM	CCCN(CCCO)C(=O)C1=Cc2ccc(-c3ccc(C(=O)O)cc3)cc2N=C(N)C1 [Compound 209, 4-((1E,4E)-2-Amino-4-((3-hydroxypropyl)(propyl)carbamoyl)-3H-benzo[b]azepin-8-yl)benzoic acid]
1 to 10 µM	NC1=Nc2cc(-c3ccc(C(=O)N4CCCC4)cc3)ccc2C=C(C(=O)N(C2CCNCC2)C2CC2)C1 [Compound 115, (1E,4E)-2-amino-N-cyclopropyl-N-(piperidin-4-yl)-8-(4-(pyrrolidine-1-carbonyl)phenyl)-3H-benzo[b]azepine-4-carboxamide]

The remaining lines, values behind:

SMILES	EC50
CCCN(CCC)C(=O)C1=Cc2ccc(-c3cccc(C(=O)O)c3)cc2N=C(N)C1 [Compound 186, 3-((1E,4E)-2-amino-4-(dipropylcarbamoyl)-3H-benzo[b]azepin-8-yl)benzoic acid]	10 to 100 µM
CCOC(=O)C1=Cc2ccc(-c3ccccn3)cc2N=C(N)C1 [Compound 141, (1E,4E)-ethyl 2-amino-8-(pyridin-2-yl)-3H-benzo[b]azepine-4-carboxylate]	0.1 to 1 µM
CCCN(CCC)C(=O)C1=Cc2ccc(-c3ccc(C(=O)N4C[C@H](O)[C@@H](O)C4)cc3)cc2N=C(N)C1 [Compound 129, (1E,4E)-2-amino-8-(4-((3S,4S)-3,4-dihydroxypyrrolidine-1-carbonyl)phenyl)-N,N-dipropyl-3H-benzo[b]azepine-4-carboxamide]	0.1 to 1 µM
NC1=Nc2cc(-c3ccc(C(=O)N4CCCC4)cc3)ccc2C=C(C(=O)N2CCCCC2)C1 [Compound 122, (4-((1E,4E)-2-amino-4-(piperidine-1-carbonyl)-3H-benzo[b]azepin-8-yl)phenyl)(pyrrolidin-1-yl)methanone]	1 to 10 µM
CCOC(=O)C1=Cc2ccc(-c3cccc(C#N)c3)cc2N=C(N)C1 [Compound 145, (1E,4E)-ethyl 2-amino-8-(3-cyanophenyl)-3H-benzo[b]azepine-4-carboxylate]	0.001 to 0.1 µM
CCCN(CCNS(C)(=O)=O)C(=O)C1=Cc2ccc(-c3ccc(C(=O)N4CCCC4)cc3)cc2N=C(N)C1 [Compound 176, (1E,4E)-2-amino-N-(2-(methylsulfonamido)ethyl)-N-propyl-8-(4-(pyrrolidine-1-carbonyl)phenyl)-3H-benzo[b]azepine-4-carboxamide]	1 to 10 µM
CCCN(CCC)C(=O)C1=Cc2ccc(-c3ccc(C(=O)N4C[C@@H](O)[C@H](O)C4)cc3)cc2N=C(N)C1 [Compound 130, (1E,4E)-2-amino-8-(4-((3R,4R)-3,4-dihydroxypyrrolidine-1-carbonyl)phenyl)-N,N-dipropyl-3H-benzo[b]azepine-4-carboxamide]	0.1 to 1 µM
CCCN(CC(O)CO)C(=O)C1=Cc2ccc(-c3ccc(C(=O)N4CCCC4)cc3)cc2N=C(N)C1 (stereo not shown) [Compound 110, (1E,4E)-2-amino-N-(2,3-dihydroxypropyl)-N-propyl-8-(4-(pyrrolidine-1-carbonyl)phenyl)-3H-benzo[b]azepine-4-carboxamide]	1 to 10 µM
CCCN(CCCF)C(=O)C1=Cc2ccc(-c3ccc(C(=O)N4CCCC4)cc3)cc2N=C(N)C1 [Compound 202, (1E,4E)-2-Amino-N-(3-fluoropropyl)-N-propyl-8-(4-(pyrrolidine-1-carbonyl)phenyl)-3H-benzo[b]azepine-4-carboxamide]	0.1 to 1 µM
CCOC(=O)C1=Cc2ccc(-c3ccc(C#N)cc3)cc2N=C(N)C1 [Compound 146, (1E,4E)-ethyl 2-amino-8-(4-cyanophenyl)-3H-benzo[b]azepine-4-carboxylate]	0.1 to 1 µM
CCOC(=O)C1=Cc2ccc(-c3ccc(C(=O)N4CCCCC4)cc3)cc2N=C(N)C1 [Compound 156, (1E,4E)-ethyl 2-amino-8-(4-(piperidine-1-carbonyl)phenyl)-3H-benzo[b]azepine-4-carboxylate]	0.1 to 1 µM
